# Data taken from patent US6218379A, “Tricyclic carbacephems” (Hoffmann-la Roche Inc., priority 1996, dated 2001).
# Counter-ions that a name gives are not always drawn.
# How the values were obtained:
# [1] = system: Citrobacter freundii 1982; assay: Antibacterial activity in vitro (MIC) against Citrobacter freundii 1982; assay type: cell-based; conditions: read-out: MIC C. freundii 1982
# Description: (§1) The minimum inhibitory concentration in vitro (MIC in μg/ml) of a compound of formula I against Citrobacter freundii 1982 and Staphylococcus aureus 887 is measured and compiled in Table 2.
# [2] = system: Staphylococcus aureus 887; assay: Antibacterial activity in vitro (MIC) against Staphylococcus aureus 887; assay type: cell-based; conditions: read-out: MIC S. aureus 887
# Description: as §1
SMILES,MIC [1] [µg/mL],MIC [2] [µg/mL]
"CC(=O)N1C[C@H]2CC(/C=C3\CCN(C4CC4)C3=O)=C(C(=O)O)N3C(=O)[C@@H]1[C@@H]23 [Example 29, (E)-(1aS,3aR,6bR)-2-Acetyl-1-oxo-5-[1-cyclopropyl-2-oxo-pyrrolidin-3-ylidenemethyl]-1a,2,3,3a,4,6b-hexahydro-1H-2,6a-diaza-cyclobut[cd]indene-6-carboxylic acid sodium salt (1:1)]",1,16
"CC(=O)N1C[C@H]2CC(/C=C3\CCN(c4ccc(O)cc4)C3=O)=C(C(=O)O)N3C(=O)[C@@H]1[C@@H]23 [Example 24, (E)-(1aS,3aR,6bR)-2-Acetyl-1-oxo-5-[2-oxo-1-(4-hydroxyphenyl)-pyrrolidin-3-ylidenemethyl]-1a,2,3,3a,4,6b-hexahydro-1H-2,6a-diaza-cyclobut[cd]indene-6-carboxylic acid sodium salt (1:1)]",1,1
"O=C(O)C1=C(/C=C2\CCN(Cc3ccc([N+](=O)[O-])cc3)C2=O)C[C@@H]2CN[C@@H]3C(=O)N1[C@H]23 [Example 15, (E)-(1aS,3aR,6bR)-1-Oxo-5-[2-oxo-1-(4-nitrobenzyl)-pyrrolidin-3-ylidenemethyl]-1a,2,3,3a,4,6b-hexahydro-1H-2,6a-diaza-cyclobut[cd]indene-6-carboxylic acid trifluoroacetate (1:0.77)]",32,8
"O=C(O)C1=C(/C=C/c2ccc3ccccc3n2)C[C@@H]2CN[C@@H]3C(=O)N1[C@H]23 [Example 54, (E)-(1aS,3aR,6bR)-1-Oxo-5-(2-quinolin-2-yl-vinyl)-1a,2,3,3a,4,6b-hexahydro-1H-2,6a-diaza-cyclobut[cd]indene-6-carboxylic acid trifluoroacetate (1:1.5)]",64,64
"CC(=O)N1C[C@H]2CC(/C=C3\CCN(c4ccccc4)C3=O)=C(C(=O)O)N3C(=O)[C@@H]1[C@@H]23 [Example 31, (E)-(1aS,3aR,6bR)-2-Acetyl-1-oxo-5-[2-oxo-1-phenyl-pyrrolidin-3-ylidenemethyl]-1a,2,3,3a,4,6b-hexahydro-1H-2,6a-diaza-cyclobut[cd]indene-6-carboxylic acid sodium salt (1:1)]",8,2
"CCOC(=O)N1CCC(N2CC/C(=C\C3=C(C(=O)O)N4C(=O)[C@@H]5[C@H]4[C@H](C3)CN5C(C)=O)C2=O)CC1 [Example 32, (E)-(1aS,3aR,6bR)-2-Acetyl-1-oxo-5-[1-(1-ethoxycarbonyl-piperidin-4-yl)-2-oxo-pyrrolidin-3-ylidenemethyl]-1a,2,3,3a,4,6b-hexahydro-1H-2,6a-diaza-cyclobut[cd]indene-6-carboxylic acid sodium salt (1:1)]",62,8
"CC(=O)N1C[C@H]2CC(/C=C3\CCN(c4ccc[n+](Cc5ccccc5)c4)C3=O)=C(C(=O)[O-])N3C(=O)[C@@H]1[C@@H]23 [Example 39, (E)-(1aS,3aR,6bR)-2-Acetyl-5-[1-(1-benzyl-pyridin-1-ium-3-yl)-2-oxo-pyrrolidin-3-ylidenemethyl]-1-oxo-1a,2,3,3a,4,6b-hexahydro-1H-2,6a-diaza-cyclobut[cd]indene-6-carboxylate acid]",4,2
"CC(=O)N1C[C@H]2CC(/C=C3\CCN(Cc4ccc([N+](=O)[O-])cc4)C3=O)=C(C(=O)O)N3C(=O)[C@@H]1[C@@H]23 [Example 26, (E)-(1aS,3aR,6bR)-2-Acetyl-1-oxo-5-[2-oxo-1-(4-nitro-benzyl)-pyrrolidin-3-ylidenemethyl]-1a,2,3,3a,4,6b-hexahydro-1H-2,6a-diaza-cyclobut[cd]indene-6-carboxylic acid sodium salt (1:1)]",8,2
"O=C(O)C1=C(/C=C/c2ccccc2)C[C@@H]2CN[C@@H]3C(=O)N1[C@H]23 [Example 49, (E)-(1aS,3aR,6bR)-1-Oxo-5-styryl-1a,2,3,3a,4,6b-hexahydro-1H-2,6a-diaza-cyclobut[cd]indene-6-carboxylic acid trifluoroacetate]",64,8
"O=C(O)C1=C(/C=C/c2cnc3ccccc3c2)C[C@@H]2CN[C@@H]3C(=O)N1[C@H]23 [Example 55, (E)-(1aS,3aR,6bR)-1-Oxo-5-(2-quinolin-3-yl-vinyl)-1a,2,3,3a,4,6b-hexahydro-1H-2,6a-diaza-cyclobut[cd]indene-6-carboxylic acid trifluoroacetate (1:1.4)]",64,4

# Now from value to compound:
MIC [1] [µg/mL],MIC [2] [µg/mL],SMILES
4,1,"O=CN1C[C@H]2CC(/C=C/c3ccccn3)=C(C(=O)O)N3C(=O)[C@@H]1[C@@H]23 [Example 56, (E)-(1aS,3aR,6bR)-2-Formyl-1-oxo-5-(2-pyridin-2-yl-vinyl)-1a,2,3,3a,4,6b-hexahydro-1H-2,6a-diaza-cyclobut[cd]indene-6-carboxylic acid sodium salt (1:1)]"
64,0.5,"CC(=O)N1C[C@H]2CC(/C=C/c3cnc4ccccc4c3)=C(C(=O)O)N3C(=O)[C@@H]1[C@@H]23 [Example 63, (E)-(1aS,3aR,6bR)-2-Acetyl-1-oxo-5-(2-quinolin-3-yl-vinyl)-1a,2,3,3a,4,6b-hexahydro-1H-2,6a-diaza-cyclobut[cd]indene-6-carboxylic acid sodium salt (1:1)]"
64,4,"CC(=O)N1C[C@H]2CC(/C=C/c3ccccc3)=C(C(=O)O)N3C(=O)[C@@H]1[C@@H]23 [Example 57, (E)-(1aS,3aR,6bR)-2-Acetyl-1-oxo-5-styryl-1a,2,3,3a,4,6b-hexahydro-1H-2,6a-diaza-cyclobut[cd]indene-6-carboxylic acid sodium salt (1:1)]"
32,0.25,"CC(=O)N1C[C@H]2CC(/C=C/c3ccc[n+](C/C=C/c4ccccc4)c3)=C(C(=O)[O-])N3C(=O)[C@@H]1[C@@H]23 [Example 69, (1aS,3aR,6bR)-2-Acetyl-1-oxo-5-[(E)-2-[1-[(E)-3-phenylallyl]-pyridin-1-ium-3-yl)-vinyl]-1a,2,3,3a,4,6b-hexahydro-1H-2,6a-diaza-cyclobut[cd]indene-6-carboxylate]"
32,2,"O=C(O)C1=C(/C=C/c2ccccn2)C[C@@H]2CN(C(=O)C(F)(F)F)[C@@H]3C(=O)N1[C@H]23 [Example 64, (E)-(1aS,3aR,6bR)-1-Oxo-5-(2-pyridin-2-yl-vinyl)-2-trifluoroacetyl-1a,2,3,3a,4,6b-hexahydro-1H-2,6a-diaza-cyclobut[cd]indene-6-carboxylic acid sodium salt (1:1)]"
32,1,"CC(=O)N1C[C@H]2CC(/C=C/c3ccncc3)=C(C(=O)O)N3C(=O)[C@@H]1[C@@H]23 [Example 59, (E)-(1aS,3aR,6bR)-2-Acetyl-1-oxo-5-(2-pyridin-4-yl-vinyl)-1a,2,3,3a,4,6b-hexahydro-1H-2,6a-diaza-cyclobut[cd]indene-6-carboxylic acid sodium salt (1:1)]"
16,0.25,"CC(=O)N1C[C@H]2CC(/C=C/c3ccc[n+](CC(N)=O)c3)=C(C(=O)[O-])N3C(=O)[C@@H]1[C@@H]23 [Example 67, (E)-(1aS,3aR,6bR)-2-Acetyl-5-[2-(1-carbamoylmethyl-pyridin-1-ium-3-yl)-vinyl]-1-oxo-1a,2,3,3a,4,6b-hexahydro-1H-2,6a-diaza-cyclobut[cd]indene-6-carboxylate]"
